Assay results taken from patent publication US20080241177A1 (priority 2003, published 2008).
Entries after “also recorded” stand apart in the source; their conditions may differ.

Legend:
[1] = Delayed type hypersensitivity (DTH) testing; assay type: in vivo, human; conditions: for Induration area, DTH testing: 48 hours following intradermal injection of individual peptide, after four vaccinations; for Number of patients with a peptide-specific DTH response: six trial patients who underwent DTH testing
Protocol: Delayed type hypersensitivity (DTH) testing was carried out 1 month after the final vaccination. […] Induration of […]10 mm^2 at 48 hours after injection was considered positive.

[2] = system: serum antibodies; assay: Immunization of sheep with the vaccine, anti-peptide ELISA; conditions: for Response to peptide using the polyclonal sheep sera or rabbit sera: polyclonal sheep sera (FIG. 2A) or rabbit sera (data not shown); for Polyclonal sera with reactivity to peptide obtained from immunized sheep: 200 μg peptide mixture in CpG DNA adjuvant, prime and boost; for Response higher in the first immunized sheep, on average: first versus second sheep
[3] = system: serum antibodies; assay: ELISA for serum antibodies specific for the individual vaccine peptides, human sera; conditions: for Number of individuals with a humoral response to the vaccine peptides, Cancer controls n = 54 / Percent of individuals with a humoral response to the vaccine peptides, Cancer controls n = 54: non-trial cancer controls, sera 1:25 dilution; for Number of individuals with a humoral response to the vaccine peptides, Trial subjects n = 6 / Percent of individuals with a humoral response to the vaccine peptides, Trial subjects n = 6: trial subjects who completed four vaccinations, detectable response at any time point considered positive
[4] = normal controls, n = 30, not vaccinated

With H-LLIYLGSTRASGVPDR-OH [Peptide 7] the “Induration area, DTH testing” value ([1]; patient 012) was 16 mm^2, the “Induration area, DTH testing” value ([1]; patient 014) was “Neg (Neg indicates that induration (if any) was less than 10 mm^2)” and the “Induration area, DTH testing” value ([1]; patient 015) was “Neg (Neg indicates that induration (if any) was less than 10 mm^2)”. For the same substance, the “Induration area, DTH testing” value ([1]; patient 016) was 39 mm^2, the “Induration area, DTH testing” value ([1]; patient 017) was “Neg (Neg indicates that induration (if any) was less than 10 mm^2)” and the “Induration area, DTH testing” value ([1]; patient 018) was “Neg (Neg indicates that induration (if any) was less than 10 mm^2)”. For the same substance, the “Number of patients with a peptide-specific DTH response” value (from here on “Number of patients”) [1] was “two”, the “Response to peptide using the polyclonal sheep sera or rabbit sera” value (shortened to “Response to peptide”) [2] was “positive responses” and the “Polyclonal sera with reactivity to peptide obtained from immunized sheep” value (shortened to “Polyclonal sera with reactivity”) ([2]; two sheep) was “neither animal; also recorded: could not be generated”. For the same substance, the “Number of individuals with a humoral response to the vaccine peptides, Cancer controls n = 54” value (“Number of individuals … Cancer controls n = 54” for short) [3] was 1, the “Percent of individuals with a humoral response to the vaccine peptides, Cancer controls n = 54” value [3] was 1.9% and the “Number of individuals with a humoral response to the vaccine peptides, Normal controls n = 30” value (“Number of individuals … Normal controls n = 30” for short) [3, 4] was 0. For the same substance, the “Number of individuals with a humoral response to the vaccine peptides, Trial subjects n = 6” value (“Number of individuals … Trial subjects n = 6” for short) [3] was 0 and the “Number of individuals … Trial subjects n = 6” value ([3]; listed as peptide 7) was “No patient demonstrated a response”.

In the case of “H-GVYYCMQGLQTPYTFGEGT -OH (H-GVYYCMQGLQTPYTFGEGT-OH) [Peptide 8]”, the “Induration area, DTH testing” value ([1]; patient 012) is reported as 113 mm^2, the “Induration area, DTH testing” value ([1]; patient 014) is reported as “Neg (Neg indicates that induration (if any) was less than 10 mm^2)” and the “Induration area, DTH testing” value ([1]; patient 015) is reported as 38 mm^2. For the same substance, the “Induration area, DTH testing” value ([1]; patient 016) was “Neg (Neg indicates that induration (if any) was less than 10 mm^2)”, the “Induration area, DTH testing” value ([1]; patient 017) was 44 mm^2 and the “Induration area, DTH testing” value ([1]; patient 018) was “Neg (Neg indicates that induration (if any) was less than 10 mm^2)”. The “Number of patients” value [1] was “three”, the “Serum antibody titres, first versus second immunized sheep” value ([2]; two sheep) was “equivalent” and the “Polyclonal sera with reactivity” value ([2]; two sheep) was “obtained from both sheep”. For the same substance, the “Number of individuals … Cancer controls n = 54” value [3] was 0, the “Number of individuals … Normal controls n = 30” value [3, 4] was 0 and the “Isotype of peptide-specific serum antibodies” value (shortened to “Isotype”) ([3]; subject 012) was “undetectable”. The “Isotype” value ([3]; subject 015) was “undetectable”, the “Number of individuals … Trial subjects n = 6” value [3] was 2 and the “Percent of individuals with a humoral response to the vaccine peptides, Trial subjects n = 6” value [3] was 33.3%. The “Number of individuals … Trial subjects n = 6” value ([3]; listed as peptide 8) was “two”.

In the case of “H-PKLLIYKASSLESGVPSR-OH [HIV-L2, reference compound]”, the “Induration area, DTH testing” value ([1]; patient 012) is reported as “Neg (Neg indicates that induration (if any) was less than 10 mm^2)”, the “Induration area, DTH testing” value ([1]; patient 014) is reported as “Neg (Neg indicates that induration (if any) was less than 10 mm^2)” and the “Induration area, DTH testing” value ([1]; patient 015) is reported as “Neg (Neg indicates that induration (if any) was less than 10 mm^2)”. For the same substance, the “Induration area, DTH testing” value ([1]; patient 016) was “Neg (Neg indicates that induration (if any) was less than 10 mm^2)”, the “Induration area, DTH testing” value ([1]; patient 017) was “Neg (Neg indicates that induration (if any) was less than 10 mm^2)” and the “Induration area, DTH testing” value ([1]; patient 018) was “Neg (Neg indicates that induration (if any) was less than 10 mm^2)”.

With H-KLLIHWASTRESGVPDR-OH [Peptide 3] the “Number of patients” value [1] was “responses were observed in at least one individual for all of the peptides, except for peptides 3 and 6”, the “Response to peptide” value [2] was “positive responses” and the “Polyclonal sera with reactivity” value ([2]; two sheep) was “neither animal; also recorded: could not be generated”. The “Number of individuals … Cancer controls n = 54” value [3] was 0, the “Number of individuals … Normal controls n = 30” value [3, 4] was 1 and the “Percent of individuals with a humoral response to the vaccine peptides, Normal controls n = 30” value [3, 4] was 3.3%. The “Number of individuals … Trial subjects n = 6” value [3] was 0 and the “Number of individuals … Trial subjects n = 6” value ([3]; listed as peptide 3) was “No patient demonstrated a response”.

In the case of H-AGLFCQQYYTTPLTFGGGT-OH [Peptide 4], the “Induration area, DTH testing” value ([1]; patient 012) is reported as “Neg (Neg indicates that induration (if any) was less than 10 mm^2)”, the “Induration area, DTH testing” value ([1]; patient 014) is reported as “Neg (Neg indicates that induration (if any) was less than 10 mm^2)” and the “Induration area, DTH testing” value ([1]; patient 015) is reported as 13 mm^2. For the same substance, the “Induration area, DTH testing” value ([1]; patient 016) was “Neg (Neg indicates that induration (if any) was less than 10 mm^2)”, the “Induration area, DTH testing” value ([1]; patient 017) was “Neg (Neg indicates that induration (if any) was less than 10 mm^2)” and the “Induration area, DTH testing” value ([1]; patient 018) was “Neg (Neg indicates that induration (if any) was less than 10 mm^2)”. The “Number of patients” value [1] was “one”, the “Response higher in the first immunized sheep, on average” value (“Response higher” for short) [2] was 50% and the “Response to peptide” value [2] was “positive responses”. For the same substance, the “Polyclonal sera with reactivity” value ([2]; two sheep) was “obtained from both sheep”, the “Number of individuals … Cancer controls n = 54” value [3] was 0 and the “Number of individuals … Normal controls n = 30” value [3, 4] was 0. For the same substance, the “Number of individuals … Trial subjects n = 6” value [3] was 0 and the “Number of individuals … Trial subjects n = 6” value ([3]; listed as peptide 4) was “No patient demonstrated a response”.

With H-YFCSRVKAGGPDYWGQGT-OH [Peptide 6] the “Number of patients” value [1] was “responses were observed in at least one individual for all of the peptides, except for peptides 3 and 6”, the “Response higher” value [2] was 50% and the “Response to peptide” value [2] was “positive responses”. The “Polyclonal sera with reactivity” value ([2]; two sheep) was “obtained from both sheep”, the “Number of individuals … Cancer controls n = 54” value [3] was 0 and the “Number of individuals … Normal controls n = 30” value [3, 4] was 0. For the same substance, the “Number of individuals … Trial subjects n = 6” value [3] was 0 and the “Number of individuals … Trial subjects n = 6” value ([3]; listed as peptide 6) was “No patient demonstrated a response”.

With H-AVYYCLLQALKHWGQGT-OH [Peptide 2] the “Induration area, DTH testing” value ([1]; patient 012) was 189 mm^2, the “Induration area, DTH testing” value ([1]; patient 014) was 20 mm^2 and the “Induration area, DTH testing” value ([1]; patient 015) was 86 mm^2. The “Induration area, DTH testing” value ([1]; patient 016) was “Neg (Neg indicates that induration (if any) was less than 10 mm^2)”, the “Induration area, DTH testing” value ([1]; patient 017) was 71 mm^2 and the “Induration area, DTH testing” value ([1]; patient 018) was 38 mm^2. The “Number of patients” value [1] was “five”, the “Response higher” value [2] was 50% and the “Polyclonal sera with reactivity” value ([2]; two sheep) was “obtained from both sheep”. The “Number of individuals … Cancer controls n = 54” value [3] was 1, the “Percent of individuals with a humoral response to the vaccine peptides, Cancer controls n = 54” value [3] was 1.9% and the “Number of individuals … Normal controls n = 30” value [3, 4] was 0. The “Isotype” value ([3]; subject 012) was “IgG1”, the “Isotype” value ([3]; subject 014) was “IgG1 and IgG3” and the “Isotype” value ([3]; subject 015) was “IgG1 and IgG3”. The “Isotype” value ([3]; subject 016) was “IgG4”, the “Number of individuals … Trial subjects n = 6” value [3] was 4 and the “Percent of individuals with a humoral response to the vaccine peptides, Trial subjects n = 6” value [3] was 66.7%. For the same substance, the “Number of individuals … Trial subjects n = 6” value ([3]; listed as peptide 2) was “four of the six”.
